Measured values taken from US20130245355A1, “3-HETARYL-SUBSTITUTED PYRROLO[2,3 B]PYRIDINE DERIVATIVES AS PDK1 INHIBITORS” (MERCK PATENT GMBH, priority 2010, published 2013).

What was measured:
PDK1 [1] = biological target: T1, PDK1 (Homo sapiens, UniProt O15530); test: Test for the inhibition of PDK1 (flashplate, 33P-ATP); conditions: His6-PDK1 (1-50) 3.4 nM, 4 μM ATP, 30° C., 60 min; read-out: IC50 [PDK1] biochemical
T1 construct: His6 (N)
T1 sequence (O15530 51-556 limits assumed): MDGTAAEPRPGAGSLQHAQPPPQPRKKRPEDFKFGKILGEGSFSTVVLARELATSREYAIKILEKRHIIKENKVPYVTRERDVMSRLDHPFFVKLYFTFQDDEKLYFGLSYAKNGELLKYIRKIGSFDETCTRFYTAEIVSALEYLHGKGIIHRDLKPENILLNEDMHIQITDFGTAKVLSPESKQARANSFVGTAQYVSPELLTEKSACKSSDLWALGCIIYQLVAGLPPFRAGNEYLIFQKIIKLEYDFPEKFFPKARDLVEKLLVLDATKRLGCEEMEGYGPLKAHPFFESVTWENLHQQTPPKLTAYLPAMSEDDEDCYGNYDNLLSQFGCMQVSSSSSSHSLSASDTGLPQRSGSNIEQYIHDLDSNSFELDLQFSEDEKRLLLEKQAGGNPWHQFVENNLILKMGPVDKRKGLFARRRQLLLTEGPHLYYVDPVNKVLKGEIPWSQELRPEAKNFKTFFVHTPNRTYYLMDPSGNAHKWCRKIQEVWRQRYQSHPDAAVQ
Description: The experimental batches are carried out in a flashplate system with 384 wells/microtitration plate.
In each case, the PDK1 sample His6-PDK1 (1-50) (3.4 nM), the PDK1 substrate biotin-bA-bA-[…] (400 nM), 4 μM ATP (with 0.2μ Ci of ^33P-ATP/well) and the test substance in 50 μl of conventional experimental solution per well are incubated at 30° C. for 60 min. The test substances are employed in corresponding concentrations (if desired in a dilution series). The control is carried out without test substance. The reaction is stopped using standard methods and washed. The activity of the kinase is measured via the incorporated radioactivity in top count. In order to determine the non-specific kinase reaction (blank value), the experimental batches are carried out in the presence of 100 nM staurosporin.
The radioactivity (decompositions per minute) of the blank value (no use of test substance in the presence of staurosporin) is subtracted from all other radioactivity values. The controls (kinase activity without test substance) are set equal to 100 percent and all other radioactivity values (after subtracting the blank value) are expressed set in relation thereto (for example in % of the control).
IC50 values (50% inhibition) are determined with the aid of statistics programmes, such as, for example, RS1.

PDK1 [2] = biological target: T2, PDK1 (Homo sapiens, UniProt O15530); test: Cellular testing of PDK1 kinase inhibitors in PC3 cells (Luminex, phospho-T308-PKB); type: cell-based; conditions: 30 min, serum-free
T2 construct: endogenous in cells; host or cells: PC3 cells
T2 sequence (O15530 1-556): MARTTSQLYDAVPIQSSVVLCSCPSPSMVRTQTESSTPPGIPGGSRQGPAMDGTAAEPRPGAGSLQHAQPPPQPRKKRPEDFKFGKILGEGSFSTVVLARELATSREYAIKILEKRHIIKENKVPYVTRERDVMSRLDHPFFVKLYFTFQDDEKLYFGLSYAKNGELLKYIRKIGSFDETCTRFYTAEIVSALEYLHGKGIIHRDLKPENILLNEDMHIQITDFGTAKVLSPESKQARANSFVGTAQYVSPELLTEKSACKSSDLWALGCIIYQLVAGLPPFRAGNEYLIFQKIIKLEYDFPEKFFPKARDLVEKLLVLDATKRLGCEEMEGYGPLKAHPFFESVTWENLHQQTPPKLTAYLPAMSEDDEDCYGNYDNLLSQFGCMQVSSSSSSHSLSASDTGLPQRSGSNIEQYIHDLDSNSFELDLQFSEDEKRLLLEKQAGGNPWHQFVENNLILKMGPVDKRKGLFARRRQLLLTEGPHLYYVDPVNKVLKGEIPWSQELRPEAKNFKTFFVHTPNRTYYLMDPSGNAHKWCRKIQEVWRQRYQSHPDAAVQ
Description: Method for the Cellular Testing of PDK1 Kinase Inhibitors in PC3 Cells.
The cellular assay for the determination of the PDK1 kinase activity is carried out as a Luminex assay in the 96-well format. PC3 cells are sown at 20,000 cells per well in 100 μl of medium (45% of […]/45% of Ham's F12/10% of FCS) and incubated on the following day for 30 min with a serial dilution of the test substance (7 concentrations) under serum-free conditions. The cells are subsequently lysed using 90 μl of lysis buffer (20 mM tris/HCl pH 8.0, 150 mM NaCl, 1% of NP40, 10% of glycerol, 1% of phosphatase inhibitor I, 1% of phosphatase inhibitor II, 0.1% of protease inhibitor cocktail III, 0.01% of benzonase) per well, and the lysates are separated off from insoluble cell constituents by means of centrifugation through a 96-well filter plate (0.65 μm). The lysates are incubated overnight at 4° C. with shaking with Luminex beads to which an anti-total PKB antibody is coupled. The detection is carried out on the following day by addition of a phospho-T308-PKB antibody and a species-specific […] secondary antibody. The detection of phospho T308-PKB is carried out by measurement in a Luminex100 instrument by determination of 100 events per cavity in a measurement time of 60 sec. As pharmacological blank, the signals obtained from cells which have been treated with 10 μM staurosporin are subtracted from all other batches. The control value used for maximum phosphorylation of PKB on T308 are the signals from cells which have only been treated with the solvent (0.3% of DMSO). The values of the batches treated with test substance are calculated therefrom as percentage of control, and IC50 values are determined by means of RS 1.

Compound | IC50 (PDK1 [1]) [µM] | IC50 (PDK1 [2]) [µM]
Cn1cc(-c2cnc3[nH]cc(-c4nnc([C@@H](N)c5ccccc5Cl)o4)c3c2)cn1 [A113] | 0.0005 to 1 | 1 to 10
Cn1cc(-c2cnc3[nH]cc(-c4nc(C(C)(O)c5cccc(F)c5F)no4)c3c2)cn1 (stereo not drawn) [A78] | 0.0005 to 1 | 0.0005 to 1
Cn1cc(-c2cnc3[nH]cc(-c4nnc(C5(c6ccccn6)CC5)o4)c3c2)cn1 [A120] | 1 to 10 | 1 to 10
Cc1cc(C2(c3nnc(-c4c[nH]c5ncc(-c6cnn(C)c6)cc45)o3)CC2)ccn1 [A85, 5-(1-methyl-1H-pyrazol-4-yl)-3-{5-[1-(2-methylpyridin-4-yl)-cyclopropyl]-1,3,4-oxadiazol-2-yl}-1H-pyrrolo[2,3-b]pyridine] | 1 to 10 | 1 to 10
Cn1cc(-c2cnc3[nH]cc(-c4cc(C(C)(O)c5ccccc5F)[nH]n4)c3c2)cn1 (stereo not drawn) [A18] | 0.0005 to 1 | 1 to 10
Cn1cc(-c2cnc3[nH]cc(-c4nnc(C5(c6ccccc6Cl)CC5)o4)c3c2)cn1 [A83] | 0.0005 to 1 | 0.0005 to 1
Cn1cc(-c2cnc3[nH]cc(-c4cc(C(O)c5ccccc5)nn4CCO)c3c2)cn1 (stereo not drawn) [A107] | 0.0005 to 1 | 1 to 10
Cn1cc(-c2cnc3[nH]cc(-c4nnc(C(O)c5ccc(C(=O)NC6CCCCC6)cc5Cl)o4)c3c2)cn1 (stereo not drawn) [A129, 3-chloro-N-cyclohexyl-4-(hydroxy-{5-[5-(1-methyl-1H-pyrazol-4-yl)-1H-pyrrolo[2,3-b]pyridin-3-yl]-1,3,4-oxadiazol-2-yl}methyl)benzamide] |  | 1 to 10
Cn1cc(-c2cnc3[nH]cc(-c4nnc(C(C)(C)c5ccnnc5)o4)c3c2)cn1 [A121, 5-(1-methyl-1H-pyrazol-4-yl)-3-[5-(1-methyl-1-pyridazin-4-ylethyl)-1,3,4-oxadiazol-2-yl]-1H-pyrrolo[2,3-b]pyridine] | 1 to 10 | 
Cn1cc(-c2cnc3[nH]cc(-c4cc(C(O)(c5ccccc5)C5CCOCC5)[nH]n4)c3c2)cn1 (stereo not drawn) [A101, {5-[5-(1-methyl-1H-pyrazol-4-yl)-1H-pyrrolo[2,3-b]pyridin-3-yl]-2H-pyrazol-3-yl}phenyl(tetrahydropyran-4-yl)methanol] | 0.0005 to 1 | 
Cn1cc(-c2cnc3[nH]cc(-c4nnc([C@H](O)c5ccccc5Cl)o4)c3c2)cn1 (single isomer, unassigned) [A131] | 0.0005 to 1 | 
Cn1cc(-c2cnc3[nH]cc(-c4cc(C(O)(c5ccccc5)C5CCOCC5)no4)c3c2)cn1 (stereo not drawn) [A102] | 0.0005 to 1 | 
Cn1cc(-c2cnc3[nH]cc(-c4nnc(C5(c6ccnc(O)c6)CC5)o4)c3c2)cn1 [A111] | 0.0005 to 1 | 
Cn1cc(-c2cnc3[nH]cc(-c4cc(C(C)(O)c5ccnnc5)on4)c3c2)cn1 (stereo not drawn) [A98, 1-{3-[5-(1-methyl-1H-pyrazol-4-yl)-1H-pyrrolo[2,3-b]pyridin-3-yl]isoxazol-5-yl}-1-pyridazin-4-ylethanol] | 0.0005 to 1 | 
Cn1cc(-c2cnc3[nH]cc(-c4nnc(C(N)c5cccnc5)o4)c3c2)cn1 (stereo not drawn) [A115] | 1 to 10 | 
COC(C)(c1ccccc1)c1cc(-c2c[nH]c3ncc(-c4cnn(C)c4)cc23)nn1C (stereo not drawn) [A73] | 1 to 10 | 
Cn1cc(-c2cnc3[nH]cc(-c4cc(C(O)c5ccccc5)nn4CCO)c3c2)cn1 (stereo not drawn) [A106] | 1 to 10 | 
CCN(CC)Cc1cc(-c2c[nH]c3ncc(-c4cnn(C)c4)cc23)no1 [A104] | 0.0005 to 1 | 
Cn1cc(-c2cnc3[nH]cc(-c4cc(C(O)(c5ccccc5)C5CCOCC5)on4)c3c2)cn1 (stereo not drawn) [A103] | 0.0005 to 1 | 

Second part, the compound after the results:

IC50 (PDK1 [1]) [µM] | IC50 (PDK1 [2]) [µM] | Compound
0.0005 to 1 |  | Cn1cc(-c2cnc3[nH]cc(-c4n[nH]c(C(O)c5ccccc5)n4)c3c2)cn1 (stereo not drawn) [A30]
0.0005 to 1 |  | Cn1cc(-c2cnc3[nH]cc(-c4nnc([C@@H](N)c5ccccc5)o4)c3c2)cn1 [A109, C—((S)—C-{5-[5-(1-methyl-1H-pyrazol-4-yl)-1H-pyrrolo[2,3-b]-pyridin-3-yl]-1,3,4-oxadiazol-2-yl}-C-phenyl)methylamine]
0.0005 to 1 |  | CC[C@](O)(c1cc(-c2c[nH]c3ncc(-c4cnn(C)c4)cc23)no1)c1ccccc1F (single isomer, unassigned) [A92]
0.0005 to 1 | 1 to 10 | Cn1cc(-c2cnc3[nH]cc(-c4nnc(C(C)(O)c5ccccc5Cl)o4)c3c2)cn1 (stereo not drawn) [A132, I-(2-chlorophenyl)-1-{5-[5-(1-methyl-1H-pyrazol-4-yl)-1H-pyrrolo[2,3-b]pyridin-3-yl]-1,3,4-oxadiazol-2-yl}ethanol]
 | 1 to 10 | Cn1cc(-c2cnc3[nH]cc(-c4nc(C5(c6ccccc6Cl)CC5)no4)c3c2)cn1 [A119]
0.0005 to 1 |  | Cn1cc(-c2cnc3[nH]cc(-c4cc([C@](C)(O)c5ccccc5F)on4)c3c2)cn1 (single isomer, unassigned) [A56]
 | 1 to 10 | Cc1sc(Cc2ccccc2)nc1-c1c[nH]c2ncc(-c3cnn(C)c3)cc12 [A3]
1 to 10 |  | Cn1cc(-c2cnc3[nH]cc(-c4cc(C(C)(O)c5ccccc5)n(C)n4)c3c2)cn1 (stereo not drawn) [A76]
1 to 10 |  | Cn1cc(-c2cnc3[nH]cc(-c4noc(Cc5cccc(F)c5)n4)c3c2)cn1 [A8, 3-[5-(3-fluorobenzyl)-1,2,4-oxadiazol-3-yl]-5-(1-methyl-1H-pyrazol-4-yl)-1H-pyrrolo[2,3-b]pyridine]
 | 1 to 10 | Cn1cc(-c2cnc3[nH]cc(-c4csc(Cc5ccccc5)n4)c3c2)cn1 [A2, 3-(2-benzyl-thiazol-4-yl)-5-(1-methyl-1H-pyrazol-4-yl)-1H-pyrrolo[2,3-b]pyridine]
0.0005 to 1 |  | CC[C@@](O)(c1cc(-c2c[nH]c3ncc(-c4cnn(C)c4)cc23)no1)c1ccccc1F (single isomer, unassigned) [A93]
1 to 10 |  | Cn1cc(-c2cnc3[nH]cc(-c4noc(Cc5ccccc5F)n4)c3c2)cn1 [A13]
0.0005 to 1 |  | Cn1cc(-c2cnc3[nH]cc(-c4nnc([C@H](N)c5ccccc5)o4)c3c2)cn1 [A108, C—((R)—C-{5-[5-(1-methyl-1H-pyrazol-4-yl)-1H-pyrrolo[2,3-b]pyridin-3-yl]-1,3,4-oxadiazol-2-yl}-C-phenyl)methylamine]
 | 1 to 10 | Cn1cc(-c2cnc3[nH]cc(-c4csc(Cc5cccc(F)c5)n4)c3c2)cn1 [A7]
1 to 10 |  | CCC(N)(c1ccccc1)c1nnc(-c2c[nH]c3ncc(-c4cnn(C)c4)cc23)o1 (stereo not drawn) [A114]
0.0005 to 1 |  | CCOC(c1ccccc1)c1cc(-c2c[nH]c3ncc(-c4cnn(C)c4)cc23)n[nH]1 (stereo not drawn) [A90]
 | 1 to 10 | Cn1cc(-c2cnc3[nH]cc(-c4noc(C(=O)c5ccccc5)n4)c3c2)cn1 [A27]
1 to 10 |  | Cn1cc(-c2cnc3[nH]cc(-c4noc(Cc5ccccc5)n4)c3c2)cn1 [A26]
